pIC50: −log10 of the molar value. Each block holds one compound with its values, some of them ahead of it.
What was measured:
AurA = target: T1, AurA (Homo sapiens, UniProt O14965); assay: Caliper kinase profiling: AurA
T1 sequence (O14965 1-403): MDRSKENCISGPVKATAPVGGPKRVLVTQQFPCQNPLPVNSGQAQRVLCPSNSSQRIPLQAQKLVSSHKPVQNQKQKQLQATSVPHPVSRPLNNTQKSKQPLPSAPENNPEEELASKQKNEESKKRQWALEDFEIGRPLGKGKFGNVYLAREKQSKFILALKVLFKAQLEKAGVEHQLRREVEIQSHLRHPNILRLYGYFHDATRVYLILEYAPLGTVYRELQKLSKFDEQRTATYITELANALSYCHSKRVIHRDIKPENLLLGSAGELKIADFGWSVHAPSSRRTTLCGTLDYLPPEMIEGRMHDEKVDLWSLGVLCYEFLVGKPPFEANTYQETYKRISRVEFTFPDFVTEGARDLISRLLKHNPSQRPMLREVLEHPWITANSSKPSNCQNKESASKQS
Experimental: (§4) The compound was tested at concentrations of 1.0×10^−8 and 1.0×10^−9 M in the RapidKinase192™ panel in duplicate. […] The screening was performed using the Caliper EZReader2, a 4-sipper LabChip, and ProfilerPro Kinase Selectivity Assay Kits 1 and 2. The assay measures the conversion of a fluorescent peptide substrate to a phosphorylated product. Briefly, the reaction mixture was introduced through a capillary sipper onto the microfluidic chip, where the substrate and product were electrophoretically separated and detected by laser-induced fluorescence. The time-dependent fluorescence signal indicates the extent of the reaction.
(§5) The assays were conducted using the Caliper LabChip 3000 and a 12-sipper LabChip as described above.

AurC = target: T2, AurC (Homo sapiens, UniProt Q9UQB9); assay: Caliper kinase profiling: AurC
T2 sequence (Q9UQB9 1-309): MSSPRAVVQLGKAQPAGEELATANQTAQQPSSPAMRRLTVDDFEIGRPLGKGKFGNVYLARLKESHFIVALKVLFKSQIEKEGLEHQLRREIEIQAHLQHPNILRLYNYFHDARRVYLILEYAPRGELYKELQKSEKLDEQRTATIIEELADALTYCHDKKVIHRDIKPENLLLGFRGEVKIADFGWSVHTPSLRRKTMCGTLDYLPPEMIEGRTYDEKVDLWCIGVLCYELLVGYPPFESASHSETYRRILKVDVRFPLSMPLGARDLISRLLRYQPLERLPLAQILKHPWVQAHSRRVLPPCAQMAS
Experimental: as §4, §5

IGF1R = IGF1R (Homo sapiens, UniProt P08069); assay: Caliper kinase profiling: IGF1R; assay type: biochemical; parameters: purchased Caliper LifeSciences (ProfilerPro Kinase Selectivity Assay Kits); conditions: for inhibition at 0.01 µM: 10 nM, read-out: Average % Inh @ 10 nM
Experimental: as §4

COLO 205 = assay: Cell Titer-Glo cell viability: COLO 205; assay type: cell-based; conditions: Homo sapiens, COLO 205, 72 h
Experimental: (§1) This assay quantitates the ATP present in order to determine the number of viable cells in culture. Briefly, the compounds were incubated with the cells for 72 h, followed by cell lysis. The resulting luminescent signal is proportional to the amount of ATP present and, therefore, directly proportional to the number of cells present in culture.
(§2) Compound nos. […] These cell lines are derived from human lung carcinoma, colon adenocarcinoma, colon adenocarcinoma, colon carcinoma, acute promyelocytic leukemia, colon adenocarcinoma, colon adenocarcinoma (from metastatic site lymph node), respectively.
(§3) Compounds 2b, 5, 6b and 10a were tested along with derivatives in viability assays as described above by Caliper LifeSciences Systems (Hanover, Md.), in A549, HCT-15, HCT-116, MCF-7, MDA-MB-231, OVCAR3, T47D, COLO205, HT-29, BT-20, HCC1187, HL-60, MDA-MB-175, SW-620, and UACC812 cells.

AurB = AurB (Homo sapiens, UniProt Q96GD4); assay: Caliper kinase profiling: AurB
Experimental: as §4, §5

MET = target: T3, MET (Homo sapiens, UniProt P08581); assay: Caliper kinase profiling: MET; assay type: biochemical; conditions: for inhibition at 0.01 µM: 10 nM, read-out: Average % Inh @ 10 nM
T3 construct: purchased Caliper LifeSciences (ProfilerPro Kinase Selectivity Assay Kits)

HT-29 = assay: Cell Titer-Glo cell viability: HT-29; assay type: cell-based; conditions: Homo sapiens, HT-29, 72 h
Experimental: as §1, §2, §3

AXL = target: T4, AXL (Homo sapiens, UniProt P30530); assay: Caliper kinase profiling: AXL; conditions: for inhibition at 0.01 µM: read-out: Average % Inh @ 10 nM; for inhibition of AXL in panel of 11 kinases: 0.01 μM
T4 sequence (P30530 26-894): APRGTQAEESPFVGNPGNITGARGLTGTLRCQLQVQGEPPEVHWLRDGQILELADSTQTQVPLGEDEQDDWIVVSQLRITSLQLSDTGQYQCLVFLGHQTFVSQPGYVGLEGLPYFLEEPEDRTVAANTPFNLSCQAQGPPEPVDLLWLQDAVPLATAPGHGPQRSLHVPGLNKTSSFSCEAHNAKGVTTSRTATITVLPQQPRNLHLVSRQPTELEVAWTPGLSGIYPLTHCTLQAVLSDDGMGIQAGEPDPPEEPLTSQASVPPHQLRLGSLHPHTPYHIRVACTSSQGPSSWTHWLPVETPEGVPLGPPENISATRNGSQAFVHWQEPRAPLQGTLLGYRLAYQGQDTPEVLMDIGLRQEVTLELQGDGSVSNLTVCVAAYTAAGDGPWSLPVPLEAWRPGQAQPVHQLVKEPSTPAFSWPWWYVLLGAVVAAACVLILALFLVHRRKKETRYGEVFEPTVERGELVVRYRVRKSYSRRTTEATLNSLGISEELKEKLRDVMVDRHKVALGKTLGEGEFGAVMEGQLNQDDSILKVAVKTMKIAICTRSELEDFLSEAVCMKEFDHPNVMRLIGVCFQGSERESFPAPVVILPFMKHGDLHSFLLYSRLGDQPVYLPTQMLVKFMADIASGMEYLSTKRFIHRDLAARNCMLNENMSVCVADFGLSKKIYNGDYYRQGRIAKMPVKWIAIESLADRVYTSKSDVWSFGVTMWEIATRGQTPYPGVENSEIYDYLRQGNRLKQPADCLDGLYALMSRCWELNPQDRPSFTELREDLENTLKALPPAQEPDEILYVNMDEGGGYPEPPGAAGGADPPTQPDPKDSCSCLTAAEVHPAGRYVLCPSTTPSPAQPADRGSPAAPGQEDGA
Experimental: as §4
The kinases tested were AurA, AurB, AurC, AXL, FAK2, IGF1R, InsR, Mer, MET, TrkB and TrkC.
as §5

PYK2 = target: T5, PYK2 (Homo sapiens, UniProt Q14289); assay: Caliper kinase profiling: PYK2; assay type: biochemical; conditions: for inhibition at 0.01 µM: PYK2, 10 nM, read-out: Average % Inh @ 10 nM
T5 construct: purchased Caliper LifeSciences (ProfilerPro Kinase Selectivity Assay Kits)

ROS(ROS1) = target: T6, ROS(ROS1) (Homo sapiens, UniProt P08922); assay: Caliper kinase profiling: ROS(ROS1); assay type: biochemical; conditions: for inhibition at 0.01 µM: 10 nM, read-out: Average % Inh @ 10 nM
T6 construct: purchased Caliper LifeSciences (ProfilerPro Kinase Selectivity Assay Kits)
Excerpt: ROS1 is a proto-oncogene and is highly expressed in many cancers.

INSR = target: T7, INSR (Homo sapiens, UniProt P06213); assay: Caliper kinase profiling: INSR; assay type: biochemical; conditions: for inhibition at 0.01 µM: 10 nM, read-out: Average % Inh @ 10 nM
T7 construct: purchased Caliper LifeSciences (ProfilerPro Kinase Selectivity Assay Kits)
Experimental: as §4

[1] = read-out: Average % Inh @ 10 nM
[2] = read-out: Average % Inh @ 100 nM
[3] = 100 nM, read-out: Average % Inh @ 100 nM
[4] = 1 μM, read-out: Average % Inh @ 1 μM
[5] = COLO205, colon cancer, 72 h incubation, Cell Titer-Glo
[6] = COLO-205, colon adenocarcinoma, 72 h
[7] = HT-29, colon adenocarcinoma, 72 h incubation, Cell Titer-Glo
[8] = 1 nM, read-out: Average % Inh @ 1 nM

T5 sequence (Q14289 whole entry): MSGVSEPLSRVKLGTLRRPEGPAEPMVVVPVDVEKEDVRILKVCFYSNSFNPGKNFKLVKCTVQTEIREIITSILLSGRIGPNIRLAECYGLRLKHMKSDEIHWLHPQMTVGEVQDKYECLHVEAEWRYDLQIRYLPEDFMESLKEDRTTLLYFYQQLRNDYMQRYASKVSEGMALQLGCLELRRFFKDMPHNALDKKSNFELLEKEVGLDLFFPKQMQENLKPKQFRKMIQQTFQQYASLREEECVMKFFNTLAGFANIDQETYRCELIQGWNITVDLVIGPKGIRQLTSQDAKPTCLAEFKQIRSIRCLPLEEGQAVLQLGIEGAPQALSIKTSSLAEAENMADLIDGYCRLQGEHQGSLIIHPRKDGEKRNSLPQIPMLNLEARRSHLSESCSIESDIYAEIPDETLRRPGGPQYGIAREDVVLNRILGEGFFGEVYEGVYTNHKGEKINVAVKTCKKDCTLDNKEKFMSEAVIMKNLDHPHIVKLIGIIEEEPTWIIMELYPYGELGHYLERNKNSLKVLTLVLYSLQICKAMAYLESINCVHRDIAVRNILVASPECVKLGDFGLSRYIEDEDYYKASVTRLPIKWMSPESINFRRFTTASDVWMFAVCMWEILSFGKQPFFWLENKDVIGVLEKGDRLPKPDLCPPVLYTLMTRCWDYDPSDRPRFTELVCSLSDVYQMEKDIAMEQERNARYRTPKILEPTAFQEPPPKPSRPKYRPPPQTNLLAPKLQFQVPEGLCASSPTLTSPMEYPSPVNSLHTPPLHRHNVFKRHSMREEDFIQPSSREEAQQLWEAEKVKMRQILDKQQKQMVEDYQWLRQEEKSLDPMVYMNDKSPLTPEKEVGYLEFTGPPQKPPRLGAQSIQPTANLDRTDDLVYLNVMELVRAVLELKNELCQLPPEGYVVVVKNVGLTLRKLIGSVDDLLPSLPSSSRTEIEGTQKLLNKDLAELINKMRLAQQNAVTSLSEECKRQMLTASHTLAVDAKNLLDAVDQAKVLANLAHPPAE
Chain of IGF1R (P08069 31-1367): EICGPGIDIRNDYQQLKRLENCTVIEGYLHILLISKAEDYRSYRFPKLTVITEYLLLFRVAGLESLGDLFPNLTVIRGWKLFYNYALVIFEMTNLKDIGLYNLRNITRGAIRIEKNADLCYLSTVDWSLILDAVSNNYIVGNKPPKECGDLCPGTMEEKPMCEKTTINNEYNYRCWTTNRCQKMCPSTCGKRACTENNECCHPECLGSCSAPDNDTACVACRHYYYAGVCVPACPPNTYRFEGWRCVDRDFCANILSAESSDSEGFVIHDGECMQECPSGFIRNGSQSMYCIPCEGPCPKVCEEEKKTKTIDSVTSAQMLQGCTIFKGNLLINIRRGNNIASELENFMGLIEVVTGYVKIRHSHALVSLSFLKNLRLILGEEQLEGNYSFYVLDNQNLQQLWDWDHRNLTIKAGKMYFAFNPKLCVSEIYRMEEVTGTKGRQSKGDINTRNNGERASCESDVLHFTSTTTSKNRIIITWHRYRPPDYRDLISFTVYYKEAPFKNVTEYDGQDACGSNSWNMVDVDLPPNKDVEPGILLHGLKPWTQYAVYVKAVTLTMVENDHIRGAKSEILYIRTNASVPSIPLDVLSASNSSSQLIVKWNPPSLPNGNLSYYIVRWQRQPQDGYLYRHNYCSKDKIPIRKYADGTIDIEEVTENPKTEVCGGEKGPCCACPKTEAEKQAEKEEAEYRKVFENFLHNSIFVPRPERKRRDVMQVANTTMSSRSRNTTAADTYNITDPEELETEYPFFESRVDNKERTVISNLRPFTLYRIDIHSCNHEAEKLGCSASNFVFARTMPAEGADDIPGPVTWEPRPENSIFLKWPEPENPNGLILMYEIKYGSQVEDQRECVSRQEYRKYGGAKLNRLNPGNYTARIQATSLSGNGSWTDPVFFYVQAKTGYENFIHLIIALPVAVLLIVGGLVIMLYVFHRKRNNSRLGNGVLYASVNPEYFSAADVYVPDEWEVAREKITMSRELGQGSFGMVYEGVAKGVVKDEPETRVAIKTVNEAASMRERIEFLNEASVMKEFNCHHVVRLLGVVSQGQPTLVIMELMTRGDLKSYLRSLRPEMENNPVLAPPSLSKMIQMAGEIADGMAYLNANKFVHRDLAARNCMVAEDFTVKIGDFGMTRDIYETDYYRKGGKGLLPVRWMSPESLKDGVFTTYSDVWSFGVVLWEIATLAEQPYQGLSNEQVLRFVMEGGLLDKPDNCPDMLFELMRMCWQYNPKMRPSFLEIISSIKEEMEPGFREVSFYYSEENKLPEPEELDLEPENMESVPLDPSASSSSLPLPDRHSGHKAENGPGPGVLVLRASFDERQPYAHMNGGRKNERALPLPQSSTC
Chain of AurB (Q96GD4 whole entry): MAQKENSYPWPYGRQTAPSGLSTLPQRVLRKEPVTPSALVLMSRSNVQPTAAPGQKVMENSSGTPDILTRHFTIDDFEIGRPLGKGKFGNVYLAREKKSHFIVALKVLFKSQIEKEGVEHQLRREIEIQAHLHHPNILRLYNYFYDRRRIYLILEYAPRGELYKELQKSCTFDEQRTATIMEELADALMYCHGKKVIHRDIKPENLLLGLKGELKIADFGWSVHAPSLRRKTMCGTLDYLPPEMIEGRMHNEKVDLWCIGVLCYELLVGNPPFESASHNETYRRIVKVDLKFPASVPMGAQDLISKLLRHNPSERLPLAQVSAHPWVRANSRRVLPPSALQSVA
T6 sequence (P08922 28-2347): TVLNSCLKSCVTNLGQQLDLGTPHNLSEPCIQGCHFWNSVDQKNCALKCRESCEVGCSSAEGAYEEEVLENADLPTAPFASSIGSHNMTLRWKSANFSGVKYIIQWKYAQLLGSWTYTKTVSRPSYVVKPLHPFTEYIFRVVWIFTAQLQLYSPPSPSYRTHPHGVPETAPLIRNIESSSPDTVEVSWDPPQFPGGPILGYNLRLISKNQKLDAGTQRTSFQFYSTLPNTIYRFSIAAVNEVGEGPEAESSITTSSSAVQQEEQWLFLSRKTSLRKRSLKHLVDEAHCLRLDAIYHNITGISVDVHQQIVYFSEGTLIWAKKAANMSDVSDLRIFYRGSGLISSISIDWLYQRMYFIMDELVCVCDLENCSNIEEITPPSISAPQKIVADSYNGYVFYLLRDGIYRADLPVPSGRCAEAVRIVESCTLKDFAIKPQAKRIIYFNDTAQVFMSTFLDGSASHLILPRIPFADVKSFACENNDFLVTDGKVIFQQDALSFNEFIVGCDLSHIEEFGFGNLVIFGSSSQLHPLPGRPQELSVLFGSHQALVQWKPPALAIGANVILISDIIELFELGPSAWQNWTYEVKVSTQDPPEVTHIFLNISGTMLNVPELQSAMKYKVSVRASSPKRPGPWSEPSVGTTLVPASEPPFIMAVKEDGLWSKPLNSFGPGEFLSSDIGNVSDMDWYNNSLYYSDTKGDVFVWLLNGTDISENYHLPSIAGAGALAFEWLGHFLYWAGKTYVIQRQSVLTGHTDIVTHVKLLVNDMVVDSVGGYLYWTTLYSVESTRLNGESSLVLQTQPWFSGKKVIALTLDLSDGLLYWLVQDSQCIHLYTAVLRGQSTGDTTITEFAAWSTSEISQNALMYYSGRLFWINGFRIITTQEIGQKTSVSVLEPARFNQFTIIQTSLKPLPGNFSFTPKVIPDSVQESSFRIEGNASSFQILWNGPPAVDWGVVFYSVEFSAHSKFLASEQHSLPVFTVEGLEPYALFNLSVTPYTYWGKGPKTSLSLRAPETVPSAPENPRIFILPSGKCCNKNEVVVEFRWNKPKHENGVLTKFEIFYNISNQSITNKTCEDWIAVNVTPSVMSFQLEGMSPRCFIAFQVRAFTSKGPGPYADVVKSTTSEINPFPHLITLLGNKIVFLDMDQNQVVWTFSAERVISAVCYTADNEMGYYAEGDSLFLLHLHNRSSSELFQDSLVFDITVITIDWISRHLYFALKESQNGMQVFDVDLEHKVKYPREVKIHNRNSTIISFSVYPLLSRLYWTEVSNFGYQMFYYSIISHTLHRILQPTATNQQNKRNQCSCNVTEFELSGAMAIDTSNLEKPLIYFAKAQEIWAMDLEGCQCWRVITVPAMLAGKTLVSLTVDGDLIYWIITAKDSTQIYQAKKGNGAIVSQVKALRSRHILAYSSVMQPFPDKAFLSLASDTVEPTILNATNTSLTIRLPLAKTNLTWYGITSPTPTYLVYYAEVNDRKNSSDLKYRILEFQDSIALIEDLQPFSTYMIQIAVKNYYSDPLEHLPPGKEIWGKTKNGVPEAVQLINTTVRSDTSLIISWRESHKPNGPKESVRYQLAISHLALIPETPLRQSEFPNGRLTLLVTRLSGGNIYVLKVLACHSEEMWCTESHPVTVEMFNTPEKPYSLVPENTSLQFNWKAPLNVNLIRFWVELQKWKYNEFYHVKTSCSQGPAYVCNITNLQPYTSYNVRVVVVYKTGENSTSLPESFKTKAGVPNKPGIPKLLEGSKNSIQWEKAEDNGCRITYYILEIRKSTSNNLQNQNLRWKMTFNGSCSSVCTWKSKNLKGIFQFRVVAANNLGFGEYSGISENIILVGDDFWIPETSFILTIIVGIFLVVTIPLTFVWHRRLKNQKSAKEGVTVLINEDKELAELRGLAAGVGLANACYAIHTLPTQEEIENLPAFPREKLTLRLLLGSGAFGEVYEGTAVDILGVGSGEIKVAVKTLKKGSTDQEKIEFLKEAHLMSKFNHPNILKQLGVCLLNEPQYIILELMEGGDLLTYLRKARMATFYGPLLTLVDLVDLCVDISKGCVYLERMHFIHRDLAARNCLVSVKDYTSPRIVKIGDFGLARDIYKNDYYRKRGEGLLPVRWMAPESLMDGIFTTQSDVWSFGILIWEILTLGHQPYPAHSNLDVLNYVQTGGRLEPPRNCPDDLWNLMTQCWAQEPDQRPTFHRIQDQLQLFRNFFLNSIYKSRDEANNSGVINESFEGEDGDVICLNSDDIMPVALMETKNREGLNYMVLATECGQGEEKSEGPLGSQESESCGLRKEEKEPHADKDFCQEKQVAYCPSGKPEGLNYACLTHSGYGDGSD

- inhibition at 0.01 µM (AurA; [1]): < 39%
- inhibition at 0.1 µM (AurA; [2]): > 60%
- inhibition at 1 µM (AurA; read-out: Average % Inh @ 1 μM): > 60%
- inhibition at 0.01 µM (AurC; [1]): > 60%
- inhibition at 0.1 µM (AurC; [2]): > 60%
- inhibition at 1 µM (AurC; read-out: Average % Inh @ 1 μM): > 60%
- inhibition at 0.01 µM (IGF1R): < 39%
- inhibition at 0.1 µM (IGF1R; [3]): 40 to 59%
- inhibition at 1 µM (IGF1R; [4]): > 60%
- pIC50 (COLO 205; [5]): > 7.00
- pIC50 (COLO 205; [6]): > 8.00
- inhibition at 0.01 µM (AurB; [1]): 40 to 59%
- inhibition at 0.1 µM (AurB; [2]): > 60%
- inhibition at 1 µM (AurB; read-out: Average % Inh @ 1 μM): > 60%
- inhibition at 0.01 µM (MET): < 39%
- inhibition at 0.1 µM (MET; [3]): > 60%
- inhibition at 1 µM (MET; [4]): > 60%
- pIC50 (HT-29; HT-29, colon cancer, 72 h): 6.30
- inhibition at 0.01 µM (AXL): 40 to 59%
- inhibition at 0.1 µM (AXL; [2]): > 60%
- inhibition at 1 µM (AXL; read-out: Average % Inh @ 1 μM): > 60%
- inhibition at 0.01 µM (PYK2): < 39%
- inhibition at 0.1 µM (PYK2; PYK2, 100 nM, read-out: Average % Inh @ 100 nM): > 60%
- inhibition at 1 µM (PYK2; PYK2, 1 μM, read-out: Average % Inh @ 1 μM): > 60%
- inhibition at 0.01 µM (ROS(ROS1); ROS (ROS1)): > 60%
- inhibition at 0.1 µM (ROS(ROS1); ROS (ROS1), 100 nM, read-out: Average % Inh @ 100 nM): > 60%
- inhibition at 1 µM (ROS(ROS1); ROS (ROS1), 1 μM, read-out: Average % Inh @ 1 μM): > 60%
- inhibition at 0.01 µM (INSR): < 39%
- inhibition at 0.1 µM (INSR; [3]): > 60%
- inhibition at 1 µM (INSR; [4]): > 60%
Compound: O=C(Nc1ccc(F)nc1)C1CCCN1c1nc2c(c(Nc3cc(C4CC4)[nH]n3)n1)CCC2 (single isomer, unassigned) [Compound 2b, 1-(4-(5-cyclopropyl-1H-pyrazol-3-ylamino)-6,7-dihydro-5H-cyclopenta[d]pyrimidin-2-yl)-N-(6-fluoropyridin-3-yl)pyrrolidine-2-carboxamide]

- pIC50 (COLO 205; [5]): 7.00
- pIC50 (HT-29; [7]): 8.00
- inhibition of AXL in panel of 11 kinases (AXL): strongly inhibited
Compound: O=C(Nc1ccc(F)nc1)C1CCN1c1nc2c(c(Nc3cc(C4CC4)[nH]n3)n1)CCC2 (racemic) [Compound 5, 1-(4-(5-cyclopropyl-1H-pyrazol-3-ylamino)-6,7-dihydro-5H-cyclopenta[d]pyrimidin-2-yl)-N-(6-fluoropyridin-3-yl)azetidine-2-carboxamide]

- pIC50 (COLO 205; [5]): > 7.00
- pIC50 (HT-29; [7]): > 8.00
- inhibition of AXL in panel of 11 kinases (AXL): strongly inhibited
Compound: O=C(Nc1cnccn1)C1CCCN1c1nc2c(c(Nc3cc(C4CC4)[nH]n3)n1)CCC2 (single isomer, unassigned) [Compound 6b]

- pIC50 (AurA): 6.88
- pIC50 (AurC): 7.38
- inhibition at 0.001 µM (IGF1R; [8]): < 39%
- inhibition at 0.01 µM (IGF1R): > 60%
- pIC50 (COLO 205; [6]): > 8.00
- pIC50 (AurB): 7.13
- inhibition at 0.001 µM (MET; [8]): < 39%
- inhibition at 0.01 µM (MET): 40 to 59%
- pIC50 (HT-29; HT29, colon adenocarcinoma (second entry of the table), 72 h): > 8.00
- pIC50 (HT-29; HT-29, colon cancer, 72 h): > 8.00
- pIC50 (AXL): 8.01
- inhibition at 0.001 µM (AXL; read-out: Average % Inh @ 1 nM): < 39%
- inhibition at 0.01 µM (AXL): 40 to 59%
- inhibition at 0.001 µM (PYK2; PYK2, 1 nM, read-out: Average % Inh @ 1 nM): < 39%
- inhibition at 0.01 µM (PYK2): 40 to 59%
- pIC50 (ROS(ROS1); ROS1, range of concentrations from 0.03 nM to 1): 7.82
- inhibition at 0.001 µM (ROS(ROS1); ROS (ROS1), 1 nM, read-out: Average % Inh @ 1 nM): 40 to 59%
- inhibition at 0.01 µM (ROS(ROS1); ROS (ROS1)): > 60%
- inhibition at 0.001 µM (INSR; [8]): 40 to 59%
- inhibition at 0.01 µM (INSR): > 60%
Compound: CC(C)c1cc(Nc2nc(N3CCCC3C(=O)Nc3ccc(F)nc3)nc3c2CCC3)n[nH]1 (single isomer, unassigned) [Compound 8b]

Source: patent publication US9422267B2, “Fused pyrimidine compounds and use thereof” (Medivation Technologies, Inc., priority 2012, dated 2016)
